Consider 16 molecules from PubChem BioAssay (NCI).

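Test compounds were applied to cells in 96-well plates for 48 hours at 5 doses. TGI marks complete inhibition of growth.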 Where only a bound is given, the exact number is not on record here.

Among the test systems are T-47D breast; IGROV1 ovarian; SNB-19 CNS; K-562 leukemia; MALME-3M melanoma; A498 renal; NCI-H226 lung; DU-145 prostate; CCRF-CEM leukemia; RPMI-8226 leukemia.
What all share (assay): growth of human tumour cells (NCI), 48 h

Consider `O=C(NC(=S)Nc1ccc(Br)cc1)c1ccc2c(c1)Sc1ccccc1O2`, for which the TGI with T-47D breast is over 100 µM; in the test on IGROV1 ovarian, over 100 µM; in the test on SNB-19 CNS, over 100 µM; with K-562 leukemia it was over 100 µM; in the test on MALME-3M melanoma, over 100 µM; in the test on A498 renal, 66.5 µM. For the same molecule, the TGI in the test with NCI-H226 lung, in the test with DU-145 prostate and in the test on CCRF-CEM leukemia was over 100 µM each time.

In the case of `CN(C)CCNC(=O)c1cccc2c1C(=O)c1ccccc1C2=O`, the TGI with IGROV1 ovarian is over 76.5 µM; in the test on SNB-19 CNS, over 100 µM; with K-562 leukemia, 54.5 µM; with MALME-3M melanoma, 28.1 µM; in the test on A498 renal, over 100 µM; with NCI-H226 lung, over 100 µM. Besides, the TGI in the test with RPMI-8226 leukemia was over 100 µM; in the test with CCRF-CEM leukemia, 98.9 µM.

Turning to `Nc1nnc(N)n1N`, the TGI in the test on IGROV1 ovarian, with SNB-19 CNS, in the test with K-562 leukemia, in the test on MALME-3M melanoma, in the test with NCI-H226 lung and in the test with RPMI-8226 leukemia was over 100 µM each time. In the test with CCRF-CEM leukemia, this molecule showed a TGI of over 100 µM.

As to `COc1cc(/C=C/c2ccc(OC)c(OC)c2)oc(=O)c1`, the TGI in the test with IGROV1 ovarian, in the test on SNB-19 CNS, in the test with K-562 leukemia, in the test with MALME-3M melanoma, in the test on A498 renal and with NCI-H226 lung was over 250 µM each time. In addition, the TGI in the test with RPMI-8226 leukemia and in the test on CCRF-CEM leukemia was over 250 µM throughout.

In the case of `O=C(Nc1ccccc1C(=O)NCc1ccccc1)/C(=C/c1ccccc1O)NC(=O)c1ccccc1`, the TGI in the test on T-47D breast, in the test on IGROV1 ovarian, with SNB-19 CNS, in the test on K-562 leukemia, in the test with A498 renal and in the test with NCI-H226 lung was over 100 µM throughout. Further, the TGI in the test on DU-145 prostate, with RPMI-8226 leukemia and in the test with CCRF-CEM leukemia was over 100 µM in each case.

With `COc1ccc(C2=C(OC(C)=O)c3cccn3-c3ccc(Cl)cc3S2)cc1`, the TGI with T-47D breast is over 10 µM; in the test on IGROV1 ovarian, over 10 µM; in the test on K-562 leukemia it was 5.69 µM; in the test on MALME-3M melanoma, over 10 µM; in the test with DU-145 prostate, over 10 µM; with RPMI-8226 leukemia, 6.21 µM. The TGI in the test with CCRF-CEM leukemia is over 10 µM.

For `CC1=C[P+](c2ccccc2)(c2ccccc2)c2ccccc2O1`, the TGI was 7.79 µM in the test with T-47D breast; 44.9 µM in the test with IGROV1 ovarian; over 100 µM with SNB-19 CNS; over 100 µM with K-562 leukemia; 61 µM in the test with MALME-3M melanoma; 46.2 µM in the test with NCI-H226 lung. In the test on DU-145 prostate, this molecule came in with a TGI of over 100 µM.

Turning to `COc1cc(C[C@@]2(C)[C@@H]3CCC[C@H](CO)[C@@]3(C)CC[C@@H]2C)c(Cl)c(OC)c1`, the TGI in the test with T-47D breast amounted to 22.9 µM; with IGROV1 ovarian, 29.1 µM; with SNB-19 CNS it was 33.8 µM; in the test on K-562 leukemia, 53 µM; with MALME-3M melanoma it was 32 µM; with NCI-H226 lung it was 32.5 µM. Besides, the TGI in the test with DU-145 prostate is 30 µM; in the test with RPMI-8226 leukemia, 76.2 µM; in the test with CCRF-CEM leukemia, over 100 µM.

`O=c1cc(NNc2ccccc2)[nH]c(=O)[nH]1`: the TGI with IGROV1 ovarian is over 100 µM; in the test with SNB-19 CNS, 35.5 µM; in the test with K-562 leukemia, 91.1 µM; in the test with MALME-3M melanoma, 34.4 µM; in the test on A498 renal, over 100 µM; with NCI-H226 lung it was 36 µM. Moreover, the TGI with DU-145 prostate is over 100 µM; with RPMI-8226 leukemia, 59.9 µM; with CCRF-CEM leukemia it was over 100 µM.

As for `COc1ccc(N2C(=O)C3ON(Cc4ccc(CC(N)=O)cc4)C(c4c5ccccc5c(C)c5ccccc45)C3C2=O)cc1` (stereo not given), the TGI in the test on T-47D breast is 80.1 µM; in the test on IGROV1 ovarian, over 100 µM; in the test with SNB-19 CNS it was over 100 µM; with K-562 leukemia, 38 µM; in the test on MALME-3M melanoma it was over 100 µM; with A498 renal, over 100 µM. The TGI is 78 µM in the test on DU-145 prostate and over 100 µM in the test with CCRF-CEM leukemia.

For the molecule `CCC1c2[nH]c3ccccc3c2C[C@H]2C(=O)NC(C)C(=O)N12` (stereo not given in full), the TGI in the test with T-47D breast, with IGROV1 ovarian, in the test on SNB-19 CNS, with K-562 leukemia, in the test on MALME-3M melanoma and in the test with A498 renal was over 100 µM throughout. Moreover, the TGI in the test on NCI-H226 lung, with DU-145 prostate and in the test with RPMI-8226 leukemia was over 100 µM throughout.

`O=c1c(NCc2ccccc2)c(C2(c3ccccc3F)SCCCS2)c1=O`: the TGI in the test on T-47D breast, in the test with IGROV1 ovarian, in the test on SNB-19 CNS, in the test on A498 renal, in the test with NCI-H226 lung and with DU-145 prostate was over 100 µM in each case. Also, in the test on CCRF-CEM leukemia, the TGI was over 100 µM.

For the molecule `COc1c(C(=O)/C(=N/Nc2ccc(C(=O)O)cc2)C(C)=O)c(O)cc2occc12`, the TGI with T-47D breast, with IGROV1 ovarian, with SNB-19 CNS, in the test on K-562 leukemia, in the test on MALME-3M melanoma and in the test on NCI-H226 lung was over 100 µM throughout. Also, the TGI in the test on DU-145 prostate, in the test with RPMI-8226 leukemia and with CCRF-CEM leukemia was over 100 µM throughout.

Consider `COc1ccc2c(c1)/C(=C\c1c(Cl)nc3n1CCS3)C(=O)N2`, for which the TGI was 32.7 µM with T-47D breast; over 100 µM with IGROV1 ovarian; over 100 µM with SNB-19 CNS; over 100 µM with K-562 leukemia; over 100 µM in the test on MALME-3M melanoma; 33.2 µM with A498 renal. Further, the TGI was 72.5 µM in the test with DU-145 prostate, over 100 µM in the test on RPMI-8226 leukemia and 79.2 µM in the test with CCRF-CEM leukemia.

On to `COC(=O)c1ccc(OCCn2nnc(C(=O)NN)c2C(=O)NN)cc1`, for which the TGI with SNB-19 CNS, in the test on K-562 leukemia, with MALME-3M melanoma, in the test on DU-145 prostate, in the test with RPMI-8226 leukemia and in the test on CCRF-CEM leukemia was over 100 µM each time.

Regarding `Cc1[nH]n(-c2nc(-c3ccccc3)cc(=O)[nH]2)c(=O)c1CCO`, the TGI with T-47D breast, in the test on IGROV1 ovarian, in the test with SNB-19 CNS, with K-562 leukemia, in the test with MALME-3M melanoma and with NCI-H226 lung was over 100 µM in each case. Also, the TGI with DU-145 prostate, in the test on RPMI-8226 leukemia and in the test on CCRF-CEM leukemia was over 100 µM throughout.
